{"source": "patent US20250255867A1", "about": "(Kadmon Corporation, LLC, priority 2022, published 2025)"}
{"smiles": "CC(C)NC(=O)COc1cccc(-c2nc(Nc3ccc4[nH]ncc4c3)c3ccccc3n2)c1", "note": "[Belumosudil, 2-{3-[4-(1H-indazol-5-ylamino)-2-quinazolinyl]phenoxy}-N-(propan-2-yl) acetamide]", "values": [{"measurement": "Weight decreased: Affected/At Risk (%)", "setting": "Cohort 1 200 mg QD", "value": "(5.88%)"}, {"measurement": "Weight increased: # Events", "setting": "Cohort 1 200 mg QD", "value": 9}, {"measurement": "Weight increased: Affected/At Risk", "setting": "Cohort 1 200 mg QD", "value": "3/17"}, {"measurement": "Weight increased: Affected/At Risk (%)", "setting": "Cohort 1 200 mg QD", "value": "(17.65%)"}, {"measurement": "White blood cell count decreased: # Events", "setting": "Cohort 1 200 mg QD", "value": 1}, {"measurement": "White blood cell count decreased: Affected/At Risk", "setting": "Cohort 1 200 mg QD", "value": "1/17"}, {"measurement": "White blood cell count decreased: Affected/At Risk (%)", "setting": "Cohort 1 200 mg QD", "value": "(5.88%)"}, {"measurement": "ALT/AST increased all grade, No.", "setting": "Cohort 1 200 mg QD n=17", "value": 11}, {"measurement": "ALT/AST increased grade ≥3, No.", "setting": "Cohort 1 200 mg QD n=17", "value": 2}, {"measurement": "Anemia grade ≥3, No.", "setting": "Cohort 1 200 mg QD n=17", "value": 2}, {"measurement": "Any AE, No. of patients", "setting": "Cohort 1 200 mg QD n=17", "value": 17}, {"measurement": "Cough all grade, No.", "setting": "Cohort 1 200 mg QD n=17", "value": 1}, {"measurement": "Death, No.", "setting": "Cohort 1 200 mg QD n=17", "value": 0}, {"measurement": "Diarrhea all grade, No.", "setting": "Cohort 1 200 mg QD n=17", "value": 6}, {"measurement": "Drug-related AE, No.", "setting": "Cohort 1 200 mg QD n=17", "value": 8}, {"measurement": "Drug-related SAE, No.", "setting": "Cohort 1 200 mg QD n=17", "value": 0}, {"measurement": "Dyspnea all grade, No.", "setting": "Cohort 1 200 mg QD n=17", "value": 3}, {"measurement": "Dyspnea grade ≥3, No.", "setting": "Cohort 1 200 mg QD n=17", "value": 1}, {"measurement": "Fatigue all grade, No.", "setting": "Cohort 1 200 mg QD n=17", "value": 6}, {"measurement": "Grade ≥3 AE, No.", "setting": "Cohort 1 200 mg QD n=17", "value": 9}, {"measurement": "Headache all grade, No.", "setting": "Cohort 1 200 mg QD n=17", "value": 4}, {"measurement": "Hyperglycemia grade ≥3, No.", "setting": "Cohort 1 200 mg QD n=17", "value": 2}, {"measurement": "Hypertension all grade, No.", "setting": "Cohort 1 200 mg QD n=17", "value": 5}, {"measurement": "Hypoxia grade ≥3, No.", "setting": "Cohort 1 200 mg QD n=17", "value": 1}, {"measurement": "Lung infection or pneumonia grade ≥3, No.", "setting": "Cohort 1 200 mg QD n=17", "value": 1}, {"measurement": "Nausea all grade, No.", "setting": "Cohort 1 200 mg QD n=17", "value": 6}, {"measurement": "Peripheral edema all grade, No.", "setting": "Cohort 1 200 mg QD n=17", "value": 3}, {"measurement": "SAE, No.", "setting": "Cohort 1 200 mg QD n=17", "value": 5}, {"measurement": "URI all grade, No.", "setting": "Cohort 1 200 mg QD n=17", "value": 9}, {"measurement": "Patients with relative dose intensity >95%", "setting": "Cohort 2", "value": 63, "unit": "%"}, {"measurement": "Abdominal distension: # Events", "setting": "Cohort 2 200 mg BID", "value": 0}, {"measurement": "Abdominal distension: Affected/At Risk", "setting": "Cohort 2 200 mg BID", "value": "0/16"}, {"measurement": "Abdominal distension: Affected/At Risk (%)", "setting": "Cohort 2 200 mg BID", "value": "(0%)"}, {"measurement": "Abdominal pain upper: # Events", "setting": "Cohort 2 200 mg BID", "value": 1}, {"measurement": "Abdominal pain upper: Affected/At Risk", "setting": "Cohort 2 200 mg BID", "value": "1/16"}, {"measurement": "Abdominal pain upper: Affected/At Risk (%)", "setting": "Cohort 2 200 mg BID", "value": "(6.25%)"}, {"measurement": "Abdominal pain: # Events", "setting": "Cohort 2 200 mg BID", "value": 4}, {"measurement": "Abdominal pain: Affected/At Risk", "setting": "Cohort 2 200 mg BID", "value": "2/16"}, {"measurement": "Abdominal pain: Affected/At Risk (%)", "setting": "Cohort 2 200 mg BID", "value": "(12.5%)"}, {"measurement": "Actinic keratosis: # Events", "setting": "Cohort 2 200 mg BID", "value": 1}, {"measurement": "Actinic keratosis: Affected/At Risk", "setting": "Cohort 2 200 mg BID", "value": "1/16"}, {"measurement": "Actinic keratosis: Affected/At Risk (%)", "setting": "Cohort 2 200 mg BID", "value": "(6.25%)"}, {"measurement": "Acute kidney injury: # Events", "setting": "Cohort 2 200 mg BID", "value": 2}, {"measurement": "Acute kidney injury: Affected/At Risk", "setting": "Cohort 2 200 mg BID", "value": "2/16"}, {"measurement": "Acute kidney injury: Affected/At Risk (%)", "setting": "Cohort 2 200 mg BID", "value": "(12.5%)"}, {"measurement": "Acute respiratory distress syndrome: # Events", "setting": "Cohort 2 200 mg BID", "value": 0}, {"measurement": "Acute respiratory distress syndrome: Affected/At Risk", "setting": "Cohort 2 200 mg BID", "value": "0/16"}, {"measurement": "Acute respiratory distress syndrome: Affected/At Risk (%)", "setting": "Cohort 2 200 mg BID", "value": "(0%)"}, {"measurement": "Adrenal insufficiency: # Events", "setting": "Cohort 2 200 mg BID", "value": 0}, {"measurement": "Adrenal insufficiency: Affected/At Risk", "setting": "Cohort 2 200 mg BID", "value": "0/16"}, {"measurement": "Adrenal insufficiency: Affected/At Risk (%)", "setting": "Cohort 2 200 mg BID", "value": "(0%)"}, {"measurement": "Alanine aminotransferase increased: # Events", "setting": "Cohort 2 200 mg BID", "value": 4}, {"measurement": "Alanine aminotransferase increased: Affected/At Risk", "setting": "Cohort 2 200 mg BID", "value": "3/16"}, {"measurement": "Alanine aminotransferase increased: Affected/At Risk (%)", "setting": "Cohort 2 200 mg BID", "value": "(18.75%)"}, {"measurement": "Anaemia: # Events", "setting": "Cohort 2 200 mg BID", "value": 8}, {"measurement": "Anaemia: Affected/At Risk", "setting": "Cohort 2 200 mg BID", "value": "4/16"}, {"measurement": "Anaemia: Affected/At Risk (%)", "setting": "Cohort 2 200 mg BID", "value": "(25%)"}, {"measurement": "Anal incontinence: # Events", "setting": "Cohort 2 200 mg BID", "value": 0}, {"measurement": "Anal incontinence: Affected/At Risk", "setting": "Cohort 2 200 mg BID", "value": "0/16"}, {"measurement": "Anal incontinence: Affected/At Risk (%)", "setting": "Cohort 2 200 mg BID", "value": "(0%)"}, {"measurement": "Anxiety: # Events", "setting": "Cohort 2 200 mg BID", "value": 3}, {"measurement": "Anxiety: Affected/At Risk", "setting": "Cohort 2 200 mg BID", "value": "2/16"}, {"measurement": "Anxiety: Affected/At Risk (%)", "setting": "Cohort 2 200 mg BID", "value": "(12.5%)"}, {"measurement": "Arthralgia: # Events", "setting": "Cohort 2 200 mg BID", "value": 1}, {"measurement": "Arthralgia: Affected/At Risk", "setting": "Cohort 2 200 mg BID", "value": "1/16"}, {"measurement": "Arthralgia: Affected/At Risk (%)", "setting": "Cohort 2 200 mg BID", "value": "(6.25%)"}, {"measurement": "Aspartate aminotransferase increased: # Events", "setting": "Cohort 2 200 mg BID", "value": 2}, {"measurement": "Aspartate aminotransferase increased: Affected/At Risk", "setting": "Cohort 2 200 mg BID", "value": "2/16"}]}
